Assay results published in patent US20140242093A1, “METHODS AND COMPOSITIONS FOR MODULATING THE INNATE IMMUNE RESPONSE AND/OR MYOGENESIS IN A MAMMALIAN SUBJECT” (FRED HUTCHINSON CANCER RESEARCH CENTER, priority 2011, published 2014).

How the values were obtained:
[1] = system: HCT116, primary dendritic cells, JJ and FS; assay: Real-time PCR of PRAMEF1 in transduced HCT116, primary dendritic cells, JJ and FS cell lines; format: cell-based, human
Method: HCT116 cells were infected with a control lenti-GFP or with lenti-DUX4-fl and the abundance of PRAMEF1 mRNA measured relative to a constitutively expressed gene, RPL13a.
Primary dendritic cells and the tumor cell lines derived from patients with chondrosarcomas designated JJ and FS (described in Jagasia, et al., 1996, supra) were transduced with lentiviral constructs expressing a control gene, green fluorescent protein (GFP), or DUX4fl. PRAMEF1 mRNA was measured by real-time PCR relative to a constitutively expressed control, RPL13a.

MaLR transcripts (THE1) = assay: MaLR expression analysis by real-time PCR; format: cell-based, human; details: RT-PCR, transduced muscle cells
Method: Real-time PCR was performed as described above. Water and minus RT controls were checked to ensure there was no amplification of these repetitive elements from residual or contaminating genomic DNA.

DUX4-fl: full-length DUX4 protein (SEQ ID NO:110), expressed from lentiviral or pCS2 vectors or in vitro translated
PRAMEF1 gene expression [1]: robust activation of the PRAMEF1 gene
endogenous MaLR transcripts (MaLR transcripts (THE1)): induction of endogenous MaLR transcripts
